Laboratory results reported in patent US20250271426A1, “REDUCTION OF BITTER TASTE OF ACTIVE PHARMACEUTICAL INGREDIENTS AND RELATED ASSAYS AND SCREENING METHODS” (Firmenich Incorporated, priority 2022, published 2025).

What was measured:
Assay in all cases: FLIPR calcium assay, cells with promiscuous G protein transfected with bitter receptor cDNA
Assay type in all cases: cell-based
Settings in all cases: responsive if cellular response of >10% over baseline, Fluo4-AM
[1] = biological target: T1, T2R receptor SEQ ID NO: 4 (S4) (Homo sapiens, UniProt Q9NYV8)
T1 construct: expressed in transfected cells; host or cells: cells expressing a promiscuous G protein (e.g., G16g44)
T1 sequence (Q9NYV8 1-317): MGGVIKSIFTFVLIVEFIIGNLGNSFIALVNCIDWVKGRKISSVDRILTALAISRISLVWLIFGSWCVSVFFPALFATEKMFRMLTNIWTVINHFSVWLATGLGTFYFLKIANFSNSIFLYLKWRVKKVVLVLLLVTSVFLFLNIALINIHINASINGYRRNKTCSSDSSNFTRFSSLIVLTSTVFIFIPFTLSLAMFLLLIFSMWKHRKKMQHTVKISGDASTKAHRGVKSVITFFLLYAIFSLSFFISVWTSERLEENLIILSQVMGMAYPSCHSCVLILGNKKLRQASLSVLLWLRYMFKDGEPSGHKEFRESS
Method in brief: (§1)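 Cells carrying promiscuous G protein G16g44 were transfected with a single bitter receptor cDNA each, cultured 28 hours, then loaded with Fluo4-AM for 60 minutes. After washing, agonist addition and intracellular fluorescence were recorded together by FLIPR. A receptor counted as responsive at >10% over baseline.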

[2] = biological target: T2, T2R receptor SEQ ID NO: 5 (S5) (Homo sapiens, UniProt P59534)
T2 construct: expressed in transfected cells; host or cells: cells expressing a promiscuous G protein (e.g., G16g44)
T2 sequence (P59534 18-338): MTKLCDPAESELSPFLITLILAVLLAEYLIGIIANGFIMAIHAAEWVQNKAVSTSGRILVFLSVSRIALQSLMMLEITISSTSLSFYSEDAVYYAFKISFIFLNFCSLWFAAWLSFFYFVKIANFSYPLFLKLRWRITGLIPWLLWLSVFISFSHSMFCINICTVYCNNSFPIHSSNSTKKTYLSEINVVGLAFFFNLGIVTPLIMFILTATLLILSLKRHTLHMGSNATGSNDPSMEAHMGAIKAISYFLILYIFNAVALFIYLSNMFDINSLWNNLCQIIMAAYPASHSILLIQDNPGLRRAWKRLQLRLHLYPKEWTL
Method in brief: as §1

[3] = biological target: T3, T2R receptor SEQ ID NO: 6 (S6) (Homo sapiens, UniProt P59540)
T3 construct: expressed in transfected cells; host or cells: cells expressing a promiscuous G protein (e.g., G16g44)
T3 sequence (P59540 1-309): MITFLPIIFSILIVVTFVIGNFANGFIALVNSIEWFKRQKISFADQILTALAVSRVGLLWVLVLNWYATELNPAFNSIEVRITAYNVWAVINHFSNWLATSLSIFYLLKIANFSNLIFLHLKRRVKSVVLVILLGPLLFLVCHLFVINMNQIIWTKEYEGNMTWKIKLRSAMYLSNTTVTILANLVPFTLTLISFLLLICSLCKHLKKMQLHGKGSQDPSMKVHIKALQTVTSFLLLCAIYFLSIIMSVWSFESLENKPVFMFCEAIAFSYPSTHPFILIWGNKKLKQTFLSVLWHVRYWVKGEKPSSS
Method in brief: as §1

[4] = biological target: T4, T2R receptor SEQ ID NO: 3 (S3) (Homo sapiens, UniProt Q9NYW0, T156M)
T4 construct: expressed in transfected cells; host or cells: cells expressing a promiscuous G protein (e.g., G16g44)
T4 sequence (Q9NYW0 1-307 T156M): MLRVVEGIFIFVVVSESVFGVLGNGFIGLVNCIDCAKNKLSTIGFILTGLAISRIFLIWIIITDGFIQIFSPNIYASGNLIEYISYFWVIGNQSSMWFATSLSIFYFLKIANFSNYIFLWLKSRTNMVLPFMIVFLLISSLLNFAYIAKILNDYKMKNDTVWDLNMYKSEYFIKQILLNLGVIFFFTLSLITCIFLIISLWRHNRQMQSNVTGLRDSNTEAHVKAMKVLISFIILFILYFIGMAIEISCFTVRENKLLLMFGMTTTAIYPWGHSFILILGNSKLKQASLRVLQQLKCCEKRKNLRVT
Method in brief: as §1

[5] = biological target: T5, T2R receptor SEQ ID NO: 2 (S2) (Homo sapiens, UniProt Q9NYW2)
T5 construct: expressed in transfected cells; host or cells: cells expressing a promiscuous G protein (e.g., G16g44)
T5 sequence (Q9NYW2 1-309): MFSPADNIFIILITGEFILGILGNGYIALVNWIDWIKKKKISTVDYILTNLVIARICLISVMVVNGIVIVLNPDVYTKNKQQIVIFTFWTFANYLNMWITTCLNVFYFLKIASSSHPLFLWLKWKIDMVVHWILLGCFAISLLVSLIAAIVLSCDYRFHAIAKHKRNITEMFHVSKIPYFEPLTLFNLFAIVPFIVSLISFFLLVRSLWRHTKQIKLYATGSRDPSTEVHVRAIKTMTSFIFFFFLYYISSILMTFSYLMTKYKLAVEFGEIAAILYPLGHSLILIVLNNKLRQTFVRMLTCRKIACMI
Method in brief: as §1

[6] = biological target: T6, T2R receptor SEQ ID NO: 1 (S1) (Homo sapiens, UniProt Q9NYW7)
T6 construct: expressed in transfected cells; host or cells: cells expressing a promiscuous G protein (e.g., G16g44)
T6 sequence (Q9NYW7 1-299): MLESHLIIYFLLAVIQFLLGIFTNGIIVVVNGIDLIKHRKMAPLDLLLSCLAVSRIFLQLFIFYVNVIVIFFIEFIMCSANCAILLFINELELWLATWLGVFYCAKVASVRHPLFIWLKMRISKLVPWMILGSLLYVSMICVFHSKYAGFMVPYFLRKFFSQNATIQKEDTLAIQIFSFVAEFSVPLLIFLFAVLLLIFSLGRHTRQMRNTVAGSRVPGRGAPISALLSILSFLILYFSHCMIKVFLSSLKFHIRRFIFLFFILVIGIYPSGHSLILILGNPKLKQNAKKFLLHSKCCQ
Method in brief: as §1

With `O=C(O)COCCN1CCN(C(c2ccccc2)c2ccc(Cl)cc2)CC1` (stereo not drawn) [Cetirizine] as the compound, how does the “S4 positive response of T2R receptor to API” value [1] read?
Its value is “+ (a “+” to indicate whether a particular T2R receptor showed a positive response to a particular API)”.

What about the “S5 positive response of T2R receptor to API” value [2] of the same compound?
Its value is “+ (a “+” to indicate whether a particular T2R receptor showed a positive response to a particular API)”.

And the “S6 positive response of T2R receptor to API” value [3]?
Its value is “+ (a “+” to indicate whether a particular T2R receptor showed a positive response to a particular API)”.

And the “S3 positive response of T2R receptor to API” value [4]?
The value was “+ (a “+” to indicate whether a particular T2R receptor showed a positive response to a particular API)”.

What about the “S2 positive response of T2R receptor to API” value [5] of the same compound?
Its value is “+ (a “+” to indicate whether a particular T2R receptor showed a positive response to a particular API)”.

And the “S1 positive response of T2R receptor to API” value [6]?
Its value is “+ (a “+” to indicate whether a particular T2R receptor showed a positive response to a particular API)”.

Which results are given for `CCN(CC)CCCC(C)Nc1ccnc2cc(Cl)ccc12` (stereo not drawn) [Chloroquine]?
S4 positive response of T2R receptor to API [1]: + (a “+” to indicate whether a particular T2R receptor showed a positive response to a particular API); S5 positive response of T2R receptor to API [2]: + (a “+” to indicate whether a particular T2R receptor showed a positive response to a particular API); S6 positive response of T2R receptor to API [3]: + (a “+” to indicate whether a particular T2R receptor showed a positive response to a particular API); S3 positive response of T2R receptor to API [4]: + (a “+” to indicate whether a particular T2R receptor showed a positive response to a particular API); S2 positive response of T2R receptor to API [5]: + (a “+” to indicate whether a particular T2R receptor showed a positive response to a particular API); S1 positive response of T2R receptor to API [6]: + (a “+” to indicate whether a particular T2R receptor showed a positive response to a particular API)

What does the source list for `CN(C)CCOC(C)(c1ccccc1)c1ccccn1` (stereo not drawn) [Doxylamine]?
S4 positive response of T2R receptor to API [1]: + (a “+” to indicate whether a particular T2R receptor showed a positive response to a particular API); S5 positive response of T2R receptor to API [2]: + (a “+” to indicate whether a particular T2R receptor showed a positive response to a particular API); S6 positive response of T2R receptor to API [3]: + (a “+” to indicate whether a particular T2R receptor showed a positive response to a particular API); S3 positive response of T2R receptor to API [4]: + (a “+” to indicate whether a particular T2R receptor showed a positive response to a particular API); S2 positive response of T2R receptor to API [5]: + (a “+” to indicate whether a particular T2R receptor showed a positive response to a particular API); S1 positive response of T2R receptor to API [6]: + (a “+” to indicate whether a particular T2R receptor showed a positive response to a particular API)
